Measurements: ChEMBL document CHEMBL1208688, “Synthesis and biological evaluation of novel benzodioxinocarbazoles (BDCZs) as potential anticancer agents” (Bioorg Med Chem Lett, 2010)
Active and inactive are the calls of the source. No cut-off for these calls is given here.

How the values were obtained:
[1] = target: T1, DNA topoisomerase 1 (Homo sapiens) (UniProt P11387); assay: Inhibition of topoisomerase 1
T1 sequence (whole entry): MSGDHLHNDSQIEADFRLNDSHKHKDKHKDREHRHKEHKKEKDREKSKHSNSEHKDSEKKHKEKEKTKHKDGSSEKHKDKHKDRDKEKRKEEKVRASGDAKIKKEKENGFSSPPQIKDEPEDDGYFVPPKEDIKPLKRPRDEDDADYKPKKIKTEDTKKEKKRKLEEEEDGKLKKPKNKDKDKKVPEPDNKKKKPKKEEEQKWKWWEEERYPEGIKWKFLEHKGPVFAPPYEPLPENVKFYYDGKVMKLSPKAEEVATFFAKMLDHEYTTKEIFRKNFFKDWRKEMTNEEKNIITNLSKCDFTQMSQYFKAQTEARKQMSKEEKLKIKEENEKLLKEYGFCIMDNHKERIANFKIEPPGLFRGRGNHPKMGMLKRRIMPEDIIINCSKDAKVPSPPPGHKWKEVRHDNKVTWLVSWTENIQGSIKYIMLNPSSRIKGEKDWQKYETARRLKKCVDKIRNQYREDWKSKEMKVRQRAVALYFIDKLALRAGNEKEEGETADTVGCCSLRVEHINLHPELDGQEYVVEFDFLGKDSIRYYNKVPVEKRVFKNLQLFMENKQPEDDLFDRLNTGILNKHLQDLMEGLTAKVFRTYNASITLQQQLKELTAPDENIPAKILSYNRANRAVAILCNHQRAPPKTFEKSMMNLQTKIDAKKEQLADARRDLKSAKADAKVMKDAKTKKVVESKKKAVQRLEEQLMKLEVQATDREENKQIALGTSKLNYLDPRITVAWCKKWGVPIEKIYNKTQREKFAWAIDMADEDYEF

[2] = target: DNA topoisomerase 2-alpha (Homo sapiens) (UniProt P11388); assay: Inhibition of topoisomerase 2
DNA topoisomerase 2-alpha (Homo sapiens), sequence (P11388 whole entry): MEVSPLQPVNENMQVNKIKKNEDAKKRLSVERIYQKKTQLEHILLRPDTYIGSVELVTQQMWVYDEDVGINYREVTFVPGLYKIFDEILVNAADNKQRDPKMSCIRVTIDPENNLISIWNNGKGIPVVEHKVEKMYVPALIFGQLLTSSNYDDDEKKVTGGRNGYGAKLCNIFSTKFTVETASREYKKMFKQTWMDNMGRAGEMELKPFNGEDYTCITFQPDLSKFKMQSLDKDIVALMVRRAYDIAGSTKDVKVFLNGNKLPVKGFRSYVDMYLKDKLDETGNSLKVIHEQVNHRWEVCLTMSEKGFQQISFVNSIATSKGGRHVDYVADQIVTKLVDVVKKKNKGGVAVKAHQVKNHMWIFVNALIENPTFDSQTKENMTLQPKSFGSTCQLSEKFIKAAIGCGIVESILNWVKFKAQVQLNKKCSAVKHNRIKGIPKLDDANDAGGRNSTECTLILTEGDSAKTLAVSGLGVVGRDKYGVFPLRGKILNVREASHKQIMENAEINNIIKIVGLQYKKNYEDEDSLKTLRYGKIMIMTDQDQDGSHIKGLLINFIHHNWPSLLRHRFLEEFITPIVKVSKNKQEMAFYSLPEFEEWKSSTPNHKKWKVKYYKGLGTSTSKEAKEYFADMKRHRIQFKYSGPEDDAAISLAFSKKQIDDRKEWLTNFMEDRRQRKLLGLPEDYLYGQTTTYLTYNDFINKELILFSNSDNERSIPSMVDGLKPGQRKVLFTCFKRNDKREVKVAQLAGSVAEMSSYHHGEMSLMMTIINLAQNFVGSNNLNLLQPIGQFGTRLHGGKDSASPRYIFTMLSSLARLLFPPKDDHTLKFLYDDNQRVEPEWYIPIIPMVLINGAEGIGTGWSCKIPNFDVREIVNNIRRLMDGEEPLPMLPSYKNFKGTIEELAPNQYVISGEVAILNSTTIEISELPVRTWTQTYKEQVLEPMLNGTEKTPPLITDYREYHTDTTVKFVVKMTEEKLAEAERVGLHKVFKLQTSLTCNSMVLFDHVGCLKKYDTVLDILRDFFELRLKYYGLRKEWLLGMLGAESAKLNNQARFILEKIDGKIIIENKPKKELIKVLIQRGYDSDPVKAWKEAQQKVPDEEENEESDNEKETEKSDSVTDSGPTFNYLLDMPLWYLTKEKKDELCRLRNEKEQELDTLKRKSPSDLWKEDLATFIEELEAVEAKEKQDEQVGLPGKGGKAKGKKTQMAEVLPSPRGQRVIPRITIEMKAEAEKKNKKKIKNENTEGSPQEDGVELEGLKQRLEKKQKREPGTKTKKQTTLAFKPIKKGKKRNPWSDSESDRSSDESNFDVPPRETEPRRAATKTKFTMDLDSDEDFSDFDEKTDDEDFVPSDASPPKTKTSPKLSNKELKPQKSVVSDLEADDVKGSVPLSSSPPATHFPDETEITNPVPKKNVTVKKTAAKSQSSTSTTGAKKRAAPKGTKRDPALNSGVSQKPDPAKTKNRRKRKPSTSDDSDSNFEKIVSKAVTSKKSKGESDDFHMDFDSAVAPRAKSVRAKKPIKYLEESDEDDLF

Compound: CN(C)CCn1c(=O)c2c3oc4ccccc4oc3c3[nH]c4ccc(O)cc4c3c2c1=O
- inhibition [1]: inactive
- inhibition [2]: inactive
